Measured values: ChEMBL document CHEMBL3352489, “6-Hydroxyquinolinium salts differing in the length of alkyl side-chain: synthesis and antimicrobial activity” (Bioorg Med Chem Lett, 2014)

How the values were obtained:
[1] = test system: Staphylococcus aureus; experiment: microbe, parasite or virus in culture; assay type: functional; settings: CCM 4516/08, 24 h
Description: Antibacterial activity against Staphylococcus aureus CCM 4516/08 after 24 hrs by microdilution broth method

[2] = test system: Staphylococcus aureus; experiment: microbe, parasite or virus in culture; assay type: functional; settings: CCM 4516/08, 48 h
Description: Antibacterial activity against Staphylococcus aureus CCM 4516/08 after 48 hrs by microdilution broth method

[3] = test system: Staphylococcus aureus; experiment: Bactericidal activity against Staphylococcus aureus CCM 4516/08 after 48 hrs by microdilution broth method; assay type: functional; settings: CCM 4516/08, 48 h, read-out: MBC>99.9
[4] = test system: Staphylococcus aureus; experiment: microbe, parasite or virus in culture; assay type: functional; settings: H 5996/08, 24 h
Description: Antibacterial activity against Staphylococcus aureus H 5996/08 after 24 hrs by microdilution broth method

[5] = test system: Staphylococcus aureus; experiment: microbe, parasite or virus in culture; assay type: functional; settings: H 5996/08, 48 h
Description: Antibacterial activity against Staphylococcus aureus H 5996/08 after 48 hrs by microdilution broth method

[6] = test system: Staphylococcus aureus; experiment: Bactericidal activity against Staphylococcus aureus H 5996/08 after 48 hrs by microdilution broth method; assay type: functional; settings: H 5996/08, 48 h, read-out: MBC>99.9
[7] = test system: Staphylococcus epidermidis; experiment: microbe, parasite or virus in culture; assay type: functional; settings: H 6966/08, 24 h
Description: Antibacterial activity against Staphylococcus epidermidis H 6966/08 after 24 hrs by microdilution broth method

[8] = test system: Staphylococcus epidermidis; experiment: microbe, parasite or virus in culture; assay type: functional; settings: H 6966/08, 48 h
Description: Antibacterial activity against Staphylococcus epidermidis H 6966/08 after 48 hrs by microdilution broth method

[9] = test system: Staphylococcus epidermidis; experiment: Bactericidal activity against Staphylococcus epidermidis H 6966/08 after 48 hrs by microdilution broth method; assay type: functional; settings: H 6966/08, 48 h, read-out: MBC>99.9
[10] = test system: Enterococcus sp.; experiment: microbe, parasite or virus in culture; assay type: functional; settings: J 14365/08, 24 h
Description: Antibacterial activity against Enterococcus sp. J 14365/08 after 24 hrs by microdilution broth method

[11] = test system: Enterococcus sp.; experiment: microbe, parasite or virus in culture; assay type: functional; settings: J 14365/08, 48 h
Description: Antibacterial activity against Enterococcus sp. J 14365/08 after 48 hrs by microdilution broth method

[12] = test system: Enterococcus sp.; experiment: Bactericidal activity against Enterococcus sp. J 14365/08 after 48 hrs by microdilution broth method; assay type: functional; settings: J 14365/08, 48 h, read-out: MBC>99.9
[13] = test system: Escherichia coli; experiment: microbe, parasite or virus in culture; assay type: functional; settings: CCM 4517, 24 h
Description: Antibacterial activity against Escherichia coli CCM 4517 after 24 hrs by microdilution broth method

[14] = test system: Escherichia coli; experiment: microbe, parasite or virus in culture; assay type: functional; settings: CCM 4517, 48 h
Description: Antibacterial activity against Escherichia coli CCM 4517 after 48 hrs by microdilution broth method

[15] = test system: Escherichia coli; experiment: Bactericidal activity against Escherichia coli CCM 4517 after 48 hrs by microdilution broth method; assay type: functional; settings: CCM 4517, 48 h, read-out: MBC>99.9
[16] = test system: Klebsiella pneumoniae; experiment: microbe, parasite or virus in culture; assay type: functional; settings: D 11750/08, 24 h
Description: Antibacterial activity against Klebsiella pneumoniae D 11750/08 after 24 hrs by microdilution broth method

[17] = test system: Klebsiella pneumoniae; experiment: microbe, parasite or virus in culture; assay type: functional; settings: D 11750/08, 48 h
Description: Antibacterial activity against Klebsiella pneumoniae D 11750/08 after 48 hrs by microdilution broth method

[18] = test system: Klebsiella pneumoniae; experiment: Bactericidal activity against Klebsiella pneumoniae D 11750/08 after 24 hrs by microdilution broth method; assay type: functional; settings: D 11750/08, 24 h, read-out: MBC>99.9
[19] = test system: Klebsiella pneumoniae; experiment: microbe, parasite or virus in culture; assay type: functional; settings: J 14368/08, 24 h
Description: Antibacterial activity against Klebsiella pneumoniae J 14368/08 after 24 hrs by microdilution broth method

[20] = test system: Klebsiella pneumoniae; experiment: microbe, parasite or virus in culture; assay type: functional; settings: J 14368/08, 48 h
Description: Antibacterial activity against Klebsiella pneumoniae J 14368/08 after 48 hrs by microdilution broth method

[21] = test system: Klebsiella pneumoniae; experiment: Bactericidal activity against Klebsiella pneumoniae J 14368/08 after 48 hrs by microdilution broth method; assay type: functional; settings: J 14368/08, 48 h, read-out: MBC>99.9
[22] = test system: Pseudomonas aeruginosa; experiment: microbe, parasite or virus in culture; assay type: functional; settings: CCM 1961, 72 h
Description: Antibacterial activity against Pseudomonas aeruginosa CCM 1961 after 72 hrs by microdilution broth method

[23] = test system: Pseudomonas aeruginosa; experiment: microbe, parasite or virus in culture; assay type: functional; settings: CCM 1961, 120 h
Description: Antibacterial activity against Pseudomonas aeruginosa CCM 1961 after 120 hrs by microdilution broth method

[24] = test system: Pseudomonas aeruginosa; experiment: Bactericidal activity against Pseudomonas aeruginosa CCM 1961 after 120 hrs by microdilution broth method; assay type: functional; settings: CCM 1961, 120 h, read-out: MBC>99.9
[25] = test system: Candida albicans; experiment: microbe, parasite or virus in culture; assay type: functional; settings: ATCC 44859, 24 h
Description: Antifungal activity against Candida albicans ATCC 44859 after 24 hrs by modified standard CSLI M27-A2 method

[26] = test system: Candida albicans; experiment: microbe, parasite or virus in culture; assay type: functional; settings: ATCC 44859, 48 h
Description: Antifungal activity against Candida albicans ATCC 44859 after 48 hrs by modified standard CSLI M27-A2 method

[27] = test system: Candida albicans; experiment: Fungicidal activity against Candida albicans ATCC 44859 after 48 hrs by modified standard CSLI M27-A2 method; assay type: functional; settings: ATCC 44859, 48 h
[28] = test system: Candida tropicalis; experiment: microbe, parasite or virus in culture; assay type: functional; settings: Candida tropicalis, 156, 24 h
Description: Antifungal activity against Candida tropicalis 156 after 24 hrs by modified standard CSLI M27-A2 method

[29] = test system: Candida tropicalis; experiment: microbe, parasite or virus in culture; assay type: functional; settings: Candida tropicalis, 156, 48 h
Description: Antifungal activity against Candida tropicalis 156 after 48 hrs by modified standard CSLI M27-A2 method

[30] = test system: Candida tropicalis; experiment: Fungicidal activity against Candida tropicalis 156 after 48 hrs by modified standard CSLI M27-A2 method; assay type: functional; settings: Candida tropicalis, 156, 48 h
[31] = test system: Pichia kudriavzevii; experiment: Antifungal activity against Candida krusei E28 after 24 hrs by modified standard CSLI M27-A2 method; assay type: functional; settings: E28, 24 h
[32] = test system: Pichia kudriavzevii; experiment: Antifungal activity against Candida krusei E28 after 48 hrs by modified standard CSLI M27-A2 method; assay type: functional; settings: E28, 48 h
[33] = test system: Pichia kudriavzevii; experiment: Fungicidal activity against Candida krusei E28 after 48 hrs by modified standard CSLI M27-A2 method; assay type: functional; settings: E28, 48 h
[34] = test system: Nakaseomyces glabratus; experiment: Antifungal activity against Candida glabrata 20/I after 24 hrs by modified standard CSLI M27-A2 method; assay type: functional
[35] = test system: Nakaseomyces glabratus; experiment: Antifungal activity against Candida glabrata 20/I after 48 hrs by modified standard CSLI M27-A2 method; assay type: functional
[36] = test system: Nakaseomyces glabratus; experiment: Fungicidal activity against Candida glabrata 20/I after 48 hrs by modified standard CSLI M27-A2 method; assay type: functional
[37] = test system: Trichosporon asahii; experiment: microbe, parasite or virus in culture; assay type: functional; settings: Trichosporon asahii, 1188, 24 h
Description: Antifungal activity against Trichosporon asahii 1188 after 24 hrs by modified standard CSLI M27-A2 method

[38] = test system: Trichosporon asahii; experiment: microbe, parasite or virus in culture; assay type: functional; settings: Trichosporon asahii, 1188, 48 h
Description: Antifungal activity against Trichosporon asahii 1188 after 48 hrs by modified standard CSLI M27-A2 method

[39] = test system: Trichosporon asahii; experiment: Fungicidal activity against Trichosporon asahii 1188 after 48 hrs by modified standard CSLI M27-A2 method; assay type: functional; settings: Trichosporon asahii, 1188, 48 h
[40] = test system: Aspergillus fumigatus; experiment: microbe, parasite or virus in culture; assay type: functional; settings: Aspergillus fumigatus, 231, 24 h
Description: Antifungal activity against Aspergillus fumigatus 231 after 24 hrs by modified standard CSLI M27-A2 method

[41] = test system: Aspergillus fumigatus; experiment: microbe, parasite or virus in culture; assay type: functional; settings: Aspergillus fumigatus, 231, 48 h
Description: Antifungal activity against Aspergillus fumigatus 231 after 48 hrs by modified standard CSLI M27-A2 method

[42] = test system: Aspergillus fumigatus; experiment: Fungicidal activity against Aspergillus fumigatus 231 after 48 hrs by modified standard CSLI M27-A2 method; assay type: functional; settings: Aspergillus fumigatus, 231, 48 h
[43] = test system: Lichtheimia corymbifera; experiment: microbe, parasite or virus in culture; assay type: functional; settings: Lichtheimia corymbifera, 272, 24 h
Description: Antifungal activity against Absidia corymbifera 272 after 24 hrs by modified standard CSLI M27-A2 method

[44] = test system: Lichtheimia corymbifera; experiment: microbe, parasite or virus in culture; assay type: functional; settings: Lichtheimia corymbifera, 272, 48 h
Description: Antifungal activity against Absidia corymbifera 272 after 48 hrs by modified standard CSLI M27-A2 method

[45] = test system: Lichtheimia corymbifera; experiment: Fungicidal activity against Absidia corymbifera 272 after 48 hrs by modified standard CSLI M27-A2 method; assay type: functional; settings: Lichtheimia corymbifera, 272, 48 h
[46] = test system: Trichophyton mentagrophytes; experiment: microbe, parasite or virus in culture; assay type: functional; settings: Trichophyton mentagrophytes, 445, 72 h
Description: Antifungal activity against Trichophyton mentagrophytes 445 after 72 hrs by modified standard CSLI M27-A2 method

[47] = test system: Trichophyton mentagrophytes; experiment: microbe, parasite or virus in culture; assay type: functional; settings: Trichophyton mentagrophytes, 445, 120 h
Description: Antifungal activity against Trichophyton mentagrophytes 445 after 120 hrs by modified standard CSLI M27-A2 method

[48] = test system: Trichophyton mentagrophytes; experiment: Fungicidal activity against Trichophyton mentagrophytes 445 after 120 hrs by modified standard CSLI M27-A2 method; assay type: functional; settings: Trichophyton mentagrophytes, 445, 120 h
[49] = Cytotoxicity against CHOK1 cells after 24 hrs by MTT assay; assay type: ADME, cell-based; settings: Cricetulus griseus, CHO-K1, 24 h
[50] = Retention time of the compound by isocratic elution based HPLC method; assay type: physicochemical
[51] = Retention time of the compound by gradient elution based HPLC method; assay type: physicochemical

CCCCCCCCCCCCCC[n+]1ccccc1
250 µM: MFC [30] | MFC [33] | MFC [36] | MFC [39] | MFC [42] | MFC [45]
1.95 µM: MIC95 [10] | MIC95 [11] | MIC [28] | MIC [29] | MIC [34] | MIC [35]
125 µM: MIC95 [22] | MIC95 [23] | MBC [24] | MFC [27] | MIC [43] | MIC [44]
3.91 µM: MBC [3] | MIC95 [4] | MIC95 [5] | MBC [6]
0.49 µM: MIC95 [7] | MIC95 [8] | MBC [9]
0.98 µM: MIC95 [1] | MIC95 [2] | MIC [31] | MIC [32]
7.81 µM: MIC95 [13] | MIC95 [14] | MBC [15] | MIC95 [19] | MIC95 [20] | MBC [21] | MIC [25] | MIC [26]
25 µM: IC50 [49]
31.2 µM: MIC [37] | MIC [38] | MIC [41] | MFC [48]
15.6 µM: MBC [12] | MIC95 [16] | MIC95 [17] | MBC [18] | MIC [40] | MIC [46] | MIC [47]

CCCCCCCCCC[n+]1cccc2cc(O)ccc21.[Br-]
0.65 min: Retention_time [50]
8.64 min: Retention_time [51]

CCCCCCCCCCCCCC[n+]1cccc2cc(O)ccc21.[Br-]
10.05 min: Retention_time [51]
3.91 µM: MBC [9] | MIC [34] | MIC [35]
1.65 min: Retention_time [50]
1.95 µM: MIC95 [1] | MIC95 [2] | MIC95 [10] | MIC95 [11]
62.5 µM: MBC [15] | MIC95 [16] | MIC95 [17] | MBC [18] | MBC [21]
15.6 µM: MBC [6] | MBC [12] | MIC [26] | MFC [27] | MIC [28] | MIC [29] | MFC [30] | MFC [36] | MIC [37] | MIC [40] | MFC [48]
0.98 µM: MIC95 [7] | MIC95 [8]
125 µM: MIC95 [22] | MFC [45]
250 µM: MIC95 [23] | MBC [24] | MFC [42]
32 µM: IC50 [49]
7.81 µM: MBC [3] | MIC95 [4] | MIC95 [5] | MIC [25] | MIC [31] | MIC [32] | MFC [33] | MIC [46] | MIC [47]
31.2 µM: MIC95 [13] | MIC95 [14] | MIC95 [19] | MIC95 [20] | MIC [38] | MFC [39] | MIC [41] | MIC [43] | MIC [44]

CCCCCCCCCCCCCCCCCC[n+]1cccc2cc(O)ccc21.[Br-]
11.47 min: Retention_time [51]
7.06 min: Retention_time [50]

CCCCCCCCCCCC[n+]1ccccc1
0.49 µM: MIC95 [1] | MIC [28] | MIC [31] | MIC [32] | MFC [33] | MIC [34] | MIC [35] | MFC [36]
125 µM: MIC [44]
1.95 µM: MIC95 [2] | MBC [3] | MIC95 [10] | MIC95 [13] | MIC [26] | MFC [27] | MIC [29] | MIC [46]
62.5 µM: MIC [43]
39 µM: IC50 [49]
31.2 µM: MIC [41] | MFC [42]
15.6 µM: MIC [38] | MFC [39]
0.98 µM: MIC95 [7] | MIC [25]
7.81 µM: MIC95 [17] | MBC [18] | MIC95 [19] | MIC95 [20] | MBC [21] | MIC95 [22] | MIC95 [23] | MBC [24] | MIC [37]
250 µM: MFC [45]
3.91 µM: MIC95 [4] | MIC95 [5] | MBC [6] | MIC95 [8] | MBC [9] | MIC95 [11] | MBC [12] | MIC95 [14] | MBC [15] | MIC95 [16] | MFC [30] | MIC [40] | MIC [47] | MFC [48]
